#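 These data come from cells grown in 96-well plates and exposed to compound for 48 hours at five concentrations. The concentration for 50% growth inhibition is given as GI50.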 The source made the active and inactive calls. No stated cut-off is given here; in the data, active = GI50 up to about 1.1 µM and inactive = higher.
# Assays:
# Assay in all cases: inhibition of tumour cell growth, NCI panel, 48 h
# LOX IMVI = system: LOX IMVI
# 786-0 = system: 786-0
# SK-MEL-28 = system: SK-MEL-28
# UACC-62 = system: UACC-62
# A498 = system: A498
# SNB-75 = system: SNB-75
# OVCAR-8 = system: OVCAR-8
# RXF 393 = system: RXF 393
# HCC 2998 = system: HCC 2998
# NCI-H522 = system: NCI-H522
# ACHN = system: ACHN
# CCRF-CEM = system: CCRF-CEM
# OVCAR-5 = system: OVCAR-5
# SK-MEL-2 = system: SK-MEL-2
# HOP-92 = system: HOP-92
# M14 = system: M14
# K562 = system: K562
# U-251 = system: U-251
# HCT-15 = system: HCT-15
# NCI-H460 = system: NCI-H460
SMILES,GI50 (LOX IMVI),GI50 (786-0),GI50 (SK-MEL-28),GI50 (UACC-62),GI50 (A498),GI50 (SNB-75),GI50 (OVCAR-8),GI50 (RXF 393),GI50 (HCC 2998),GI50 (NCI-H522),GI50 (ACHN),GI50 (CCRF-CEM),GI50 (OVCAR-5),GI50 (SK-MEL-2),GI50 (HOP-92),GI50 (M14),GI50 (K562),GI50 (U-251),GI50 (HCT-15),GI50 (NCI-H460)
CCOC(=O)N1CCc2cc(OC)c(OC)cc2/C1=C\c1ccc(OC)c(OC)c1,18.8 µM (inactive),19.9 µM (inactive),33.3 µM (inactive),22.9 µM (inactive),23.2 µM (inactive),27 µM (inactive),30.1 µM (inactive),17.1 µM (inactive),33.3 µM (inactive),25 µM (inactive),26.3 µM (inactive),20.7 µM (inactive),38.3 µM (inactive),12.1 µM (inactive),15.8 µM (inactive),> 10 µM (inactive),> 10 µM (inactive),30.3 µM (inactive),31 µM,–
CC1CC(=O)C2CC(CO)=CCCC2C1(C)CC/C(=C/CO)CO (centres undefined),> 10 µM (inactive),> 100 µM (inactive),> 100 µM (inactive),> 100 µM (inactive),> 100 µM (inactive),> 100 µM (inactive),> 100 µM (inactive),> 100 µM (inactive),> 100 µM (inactive),87.9 µM (inactive),> 100 µM (inactive),> 100 µM (inactive),–,–,> 100 µM (inactive),> 100 µM (inactive),> 100 µM (inactive),> 100 µM (inactive),> 100 µM,> 100 µM (inactive)
O=C1OC2(C(F)(F)F)Oc3ccccc3CN2C12CCCCC2 (centres undefined),22.4 µM (inactive),35.3 µM (inactive),55.2 µM (inactive),28 µM (inactive),53.8 µM (inactive),16 µM (inactive),36.3 µM (inactive),20.4 µM (inactive),33.1 µM (inactive),24.3 µM (inactive),19.7 µM (inactive),25.1 µM (inactive),22 µM (inactive),–,24.9 µM (inactive),19.5 µM (inactive),20.4 µM (inactive),26 µM (inactive),28.2 µM,22.5 µM (inactive)
Brc1cccc(C2(CCCC3(c4cccc(Br)n4)OCCO3)OCCO2)n1,> 100 µM (inactive),59.7 µM (inactive),> 100 µM (inactive),–,> 100 µM (inactive),23.9 µM (inactive),–,72.4 µM (inactive),> 100 µM (inactive),36.6 µM (inactive),> 100 µM (inactive),–,> 100 µM (inactive),> 100 µM (inactive),> 100 µM (inactive),> 100 µM (inactive),> 100 µM (inactive),–,> 100 µM,> 100 µM (inactive)
Cc1cc(S(=O)(=O)NC2=Nc3ccc(Cl)cc3C(c3ccccc3)N2)c(S)cc1Cl (centres undefined),47.5 µM (inactive),> 100 µM (inactive),> 100 µM (inactive),> 100 µM (inactive),> 100 µM (inactive),> 100 µM (inactive),> 100 µM (inactive),> 100 µM (inactive),> 100 µM (inactive),> 100 µM (inactive),> 100 µM (inactive),57.8 µM (inactive),> 100 µM (inactive),–,> 100 µM (inactive),> 100 µM (inactive),85.5 µM (inactive),33.8 µM (inactive),67.1 µM,8.79 µM (inactive)
NC(CCc1ncc(C(=O)O)s1)C(=O)O (centres undefined),> 100 µM (inactive),> 100 µM (inactive),> 100 µM (inactive),> 100 µM (inactive),> 100 µM (inactive),> 100 µM (inactive),> 100 µM (inactive),> 100 µM (inactive),> 100 µM (inactive),> 100 µM (inactive),> 100 µM (inactive),> 100 µM (inactive),–,–,> 100 µM (inactive),> 100 µM (inactive),> 100 µM (inactive),> 100 µM (inactive),> 100 µM,> 100 µM (inactive)
